In ChEMBL document CHEMBL3045290, “Novel salicylamide derivatives incorporating neonicotinoid pharmacophore: design, synthesis, characterization, and biological evaluation” (2013):

Legend:
Format in all cases: functional
[1] = test system: Helicoverpa armigera; experiment: Insecticidal activity against Helicoverpa armigera fed on artificial diet containing compound assessed as mortality at 125 ug/ml after 96 hr
[2] = test system: Plutella xylostella; experiment: Insecticidal activity against Plutella xylostella (diamondback moth) fed on artificial diet containing compound assessed as mortality at 62.5 ug/ml after 96 hr
[3] = test system: Helicoverpa armigera; experiment: Insecticidal activity against Helicoverpa armigera fed on artificial diet containing compound assessed as mortality at 1000 ug/ml after 96 hr
[4] = test system: Plutella xylostella; experiment: Insecticidal activity against Plutella xylostella (diamondback moth) fed on artificial diet containing compound assessed as mortality at 1000 ug/ml after 96 hr
[5] = test system: Plutella xylostella; experiment: Insecticidal activity against Plutella xylostella (diamondback moth) fed on artificial diet containing compound assessed as mortality at 31.25 ug/ml after 96 hr
[6] = test system: Plutella xylostella; experiment: Insecticidal activity against Plutella xylostella (diamondback moth) fed on artificial diet containing compound assessed as mortality at 250 ug/ml after 96 hr
[7] = test system: Plutella xylostella; experiment: Insecticidal activity against Plutella xylostella (diamondback moth) fed on artificial diet containing compound assessed as mortality at 125 ug/ml after 96 hr
[8] = test system: Helicoverpa armigera; experiment: Insecticidal activity against Helicoverpa armigera fed on artificial diet containing compound assessed as mortality at 500 ug/ml after 96 hr
[9] = test system: Helicoverpa armigera; experiment: Insecticidal activity against Helicoverpa armigera fed on artificial diet containing compound assessed as mortality at 250 ug/ml after 96 hr
[10] = test system: Plutella xylostella; experiment: Insecticidal activity against Plutella xylostella (diamondback moth) fed on artificial diet containing compound assessed as mortality at 500 ug/ml after 96 hr
[11] = test system: Helicoverpa armigera; experiment: Insecticidal activity against Helicoverpa armigera fed on artificial diet containing compound assessed as mortality at 62.5 ug/ml after 96 hr
[12] = test system: Helicoverpa armigera; experiment: Insecticidal activity against Helicoverpa armigera fed on artificial diet containing compound assessed as mortality at 31.25 ug/ml after 96 hr

Structure (SMILES)	mortality at 125 µg/mL [1] [%]	mortality at 62.5 µg/mL [2] [%]	mortality at 1000 µg/mL [3] [%]	mortality at 1000 µg/mL [4] [%]	mortality at 31.25 µg/mL [5] [%]	mortality at 250 µg/mL [6] [%]	mortality at 125 µg/mL [7] [%]	mortality at 500 µg/mL [8] [%]	mortality at 250 µg/mL [9] [%]	mortality at 500 µg/mL [10] [%]	mortality at 62.5 µg/mL [11] [%]	mortality at 31.25 µg/mL [12] [%]
O=C(Nc1ccccn1)c1ccccc1OCc1ccc(Cl)nc1	0	0	0	100	0	41	0	0	0	41	0	0
O=C(Nc1ccc(Br)cc1)c1ccccc1OCc1ccc(Cl)nc1	81	100	100	100	41	100	100	100	81	100	61	61
O=C(c1ccccc1OCc1ccc(Cl)nc1)N1CCOCC1	0	0	100	41	0	0	0	41	0	0	0	0
O=C(NC1CCCCC1)c1ccccc1OCc1ccc(Cl)nc1	0	0	0	41	0	0	0	0	0	0	0	0
O=C(Nc1ccc(F)cc1)c1ccccc1OCc1ccc(Cl)nc1	41	0	41	100	0	41	41	41	41	81	0	0
O=C(Nc1ccc(C(F)(F)F)cc1)c1ccccc1OCc1ccc(Cl)nc1	100	100	100	100	81	100	100	100	100	100	100	61
CC(C)c1ccc(NC(=O)c2ccccc2OCc2ccc(Cl)nc2)cc1	61	41	100	100	0	100	41	81	61	100	41	41
Cc1ccccc1NC(=O)c1ccccc1OCc1ccc(Cl)nc1	0	0	0	0	0	0	0	0	0	0	0	0
N#CCN(C(=O)c1ccccc1OCc1ccc(Cl)nc1)c1ccccc1	41	0	100	0	0	0	0	81	41	0	0	0
